Assays:
[1] = Pharmacokinetic (PK) studies, monkey oral PK; assay type: in vivo, Cynomolgus monkeys; settings: for bioavailability / Tmax / AUC(0-t) / Cmax: plasma, Cynomolgus monkey; for bioavailability: oral dose 2 mg/kg (CE-1: 1 mg/kg); for Tmax / AUC(0-t) / Cmax: single oral dose 2 mg/kg (CE-1: 1 mg/kg); for AUC(0-t): read-out: AUC0-24 (Arbitrary units); for Cmax: read-out: Cmax (Arbitrary unit)
Experimental: Examples 54 and 253 were tested along with comparative examples CE-1 and CE-2.
Compounds CE-2, Example 54 or Example 253 were combined with a mixture of 10% NMP (v:v) and 90% PEG300 (v:v), and the mixture was stirred until a homogeneous solution was obtained (1 mg/mL final concentration of test article).
Compound CE-1 was combined with a mixture of 15% 2-hydroxypropyl-o-cyclodextrin (w:v) and 85% Mili-Q water (v:v), and the mixture was stirred until a homogeneous solution was obtained (0.5 mg/mL final concentration of test article).
Young adult non-naive Cynomolgus monkeys with weight about 2.5-5 kg (n=1-3/test article/route) were fasted overnight and then dosed with either CE-1 (at 1 mg test article per kg animal weight), CE-2 (at 2 mg test article per kg animal weight), Example 54 (at 2 mg test article per kg animal weight), or Example 253 (at 2 mg test article per kg animal weight). Food was supplied approximately 4 hours post dose and animals were provided with free access to water all the time. Animals were restrained at designated time points for blood sampling. Approximately 500 μL of blood samples was taken via cephalic or saphenous vein into EDTA-K2 tubes. For oral administration (PO): blood samples were generally collected pre-dose, and at 15 min, 30 min, 1 hr, 2 hr, 4 hr, 8 hr, 12 hr, and 24 hr time points after dosing. Blood was maintained on wet ice, in chilled cryoracks, or at approximately 5° C. prior to centrifugation to obtain plasma. Centrifugation was conducted within 1 hour of collection. Plasma (approximately 200 μL) was placed into a micronic tubes containing 4 μL of formic acid (the final concentration of formic acid in plasma was approximately 2%) and samples were vortex mixed. Samples were maintained on dry ice prior to storage at approximately −70° C.
LC-MS/MS assays were utilized to quantify the concentration of the test articles in plasma as follows.
50 μL plasma sample was mixed with 350 μL of ACN combined with an internal standard. The mixture was then vortexed for about 1-5 min, and centrifuged at about 4,000-5,800 rpm for about […]. An aliquot of 1 μL supernatant was used for LC-MS/MS analysis.
MS conditions: A Sciex API 6500 equipped with electrospray ionization in the positive ion selected reaction monitoring mode was used for detection.
HPLC conditions • Mobile Phase A: H2O-0.1% Formic Acid • Mobile Phase B: ACN-0.1% Formic Acid
• Column: Phenomenex Kinetex XBC18 (2.1×50 mm, 2.6 μm) with a flow rate of 1.20 mL/min • Column temperature: 60° C. • Retention time: approximately between 0.85 to 1.05 • min
Pharmacokinetics parameters, including area under the curve (AUC0-24), maximum plasma concentration (Cmax), time to reach maximum plasma concentration (Tma), oral bioavailability (F %), etc., were calculated using Dotmatics software in non-compartmental model.

GLP-1R = molecular target: T1, GLP-1R (Homo sapiens, UniProt P43220); test: GLP-1R activation cAMP assay (Assay 1 or Assay 2); assay type: cell-based; settings: cAMP increase in CHO cells stably expressing GLP-1R; compounds run on one of the two cAMP assays
T1 construct: host or cells: CHO cells
How it was run: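 CHO cells stably expressing human GLP-1R were incubated 1 h in HBSS/20 mM HEPES/0.1% BSA, then exposed to 10-point agonist dilutions for 30 min at 37 °C. cAMP increase was measured with an HTRF Gs dynamic kit; EC50 from sigmoidal fit of response versus log concentration.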

T1 sequence (P43220 24-463): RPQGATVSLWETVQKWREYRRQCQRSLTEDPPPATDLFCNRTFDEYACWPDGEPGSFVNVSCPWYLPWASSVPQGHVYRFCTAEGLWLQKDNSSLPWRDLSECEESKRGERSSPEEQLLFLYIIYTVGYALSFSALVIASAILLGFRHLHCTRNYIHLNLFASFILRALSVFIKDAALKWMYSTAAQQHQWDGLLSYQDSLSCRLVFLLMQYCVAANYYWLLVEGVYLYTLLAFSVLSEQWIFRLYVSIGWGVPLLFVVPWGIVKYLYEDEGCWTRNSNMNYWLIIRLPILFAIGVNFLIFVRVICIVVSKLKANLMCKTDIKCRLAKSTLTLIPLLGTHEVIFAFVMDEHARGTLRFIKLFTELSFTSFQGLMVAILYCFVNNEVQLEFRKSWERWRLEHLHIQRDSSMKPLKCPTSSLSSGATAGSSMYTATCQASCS

Compound | bioavailability [1] | EC50 (GLP-1R) | further results
N#Cc1ccc(COc2cccc(C3CCN(Cc4nc5ccc(C(=O)O)cc5n4C[C@@H]4CCO4)CC3)n2)c(F)c1 [CE-1, (S)-2-((4-(6-((4-cyano-2-fluorobenzyl)oxy)pyridin-2-yl)piperidin-1-yl)methyl)-1-(oxetan-2-ylmethyl)-1H-benzo[d]imidazole-6-carboxylic acid, reference compound] | – | – | plasma exposures after the 12 h period ([1]; single oral dose of 1 mg/kg, monkey, FIG. 1): below the detection limit
N#Cc1ccc(COc2cccc(C3CCN(Cc4nc5ccc(C(=O)O)cc5n4C[C@@H]4CCO4)CC3)n2)c(F)c1 [Compound CE-1] | 2.5 ± 0.2% | – | –
N#Cc1ccc(COc2cccc(-c3cc(F)c(Cc4nc5ccc(C(=O)O)cc5n4C[C@@H]4CCO4)cc3F)n2)c(F)c1 [Compound CE-2] | 27.4 ± 12.9% | – | –
O=C(O)c1ccc2nc(Cc3cc(F)c(-c4cccc(OCc5ncc(C(F)(F)F)s5)n4)cc3F)n(C[C@@H]3CCO3)c2c1 [Example 54, (S)-2-(2,5-difluoro-4-(6-((5-(trifluoromethyl)thiazol-2-yl)methoxy)pyridin-2-yl)benzyl)-1-(oxetan-2-ylmethyl)-1H-benzo[d]imidazole-6-carboxylic acid] | 89 ± 33% | 0.09 nM | Tmax [1]: 4.7 ± 1.2 h; AUC(0-t) [1]: 14.2 ± 7.69 µM·h; Cmax [1]: 1.27 ± 0.628 µM
O=C(O)c1cc(F)c2nc(Cc3cc(F)c(-c4cccc(OCc5ncc(C(F)(F)F)s5)n4)cc3F)n(C[C@@H]3CCO3)c2c1 [Example 253, (S)-2-(2,5-difluoro-4-(6-((5-(trifluoromethyl)thiazol-2-yl)methoxy)pyridin-2-yl)benzyl)-4-fluoro-1-(oxetan-2-ylmethyl)-1H-benzo[d]imidazole-6-carboxylic acid] | 55.7 ± 20.6% | – | Tmax [1]: 5.3 ± 2.3 h; AUC(0-t) [1]: 6.39 ± 2.36 µM·h; Cmax [1]: 0.582 ± 0.296 µM
(S)-1-(oxetan-2-ylmethyl)-2-(2,3,6-trifluoro-4-(6-((4-(trifluoromethyl)thiazol-2-yl)methoxy)pyridin-2-yl)benzyl)-1H-benzo[d]imidazole-6-carboxylic acid [Example 376] | – | 0.153 nM | –
(S)-2-(4-(6-((5-cyano-3-fluorothiophen-2-yl)methoxy)-5-fluoropyridin-2-yl)-2,5-difluorobenzyl)-4-fluoro-1-(oxetan-2-ylmethyl)-1H-benzo[d]imidazole-6-carboxylic acid [Example 310] | – | 0.038 nM | –
